The target of series [1] is T1, Na^+/H^+ exchanger (NHE) (Rattus norvegicus, UniProt P26431).
T1 construct: from tissue; host or cells: platelet-rich plasma from Wistar rat blood
Description: NHE inhibitory effect test (swelling of rat platelets induced by sodium propionate). Format: cell-based. Particulars: rat platelet-rich plasma, sodium propionate buffer pH 6.7; 300 μM Amiloride taken as 100% inhibition; Probit method. As for the experimental part:
The NHE inhibitory activity was measured according to the method by Scholz et al. [British Journal of Pharmacology, Vol. 109, p. 562-568 (1993)], taking the swelling of rat platelets induced by sodium propionate as an index.
Under etherization, blood was collected (8 mL) from the abdominal aorta of a Wistar rat, and 1 mL of a citrate dextrose solution as an anticoagulant was added. The blood sample was immediately centrifuged at 90×g for 10 minutes, and then the collected supernatant was taken as platelet-rich plasma. Subsequently, to 250 μL of a 140 mM sodium propionate buffer solution containing the test compound dissolved in dimethylsulfoxide (pH 6.7, final dimethylsulfoxide concentration 1%), the platelet-rich plasma prepared in the above (number of platelet; 10×10^6/50 μL) was added, and the decrease in the absorbance associated with the swelling of platelets was measured over time with a Hematracer (NKK Corp.).
The rate of decrease in the absorbance at 20 seconds after the addition of the platelet-rich plasma was taken as the NHE activity, and the inhibitory activity of the respective compounds was expressed as a relative activity, while the action obtained upon addition of 300 μM of Amiloride was taken as 100% inhibition.
In addition, the test results were obtained by calculating the concentration at which the inhibitory activity of the test compound becomes 50% (IC50 value), by a Probit method.

Series [2] has as its system reperfusion-induced arrhythmia upon myocardial ischemia. Description: Reperfusion-induced arrhythmia inhibitory action test. Format: in vivo, rat. The following applies: male SD rats, 1 mL/kg intravenous. The procedure: Subsequently, in evaluation of the in vivo NHE inhibitory action, the effect of the test compound on reperfusion-induced arrhythmia upon myocardial ischemia was evaluated according to the method of Aihara et al. [European Journal of Pharmacology, Vol. 404, p. 221-229 (2000)]. Under anesthesia using pentobarbital sodium (60 mg/kg, intraperitoneal administration), cannulae were inserted into trachea, femoral vein and carotid artery of male SD rats ([…]) for artificial ventilation, drug administration and blood pressure measurement, respectively. The blood pressure was measured using a strain pressure amplifier via a pressure transducer, while the heart rate was measured from the blood pressure pulse wave using a cardiotachometer. Furthermore, an electrocardiogram (lead II) was measured from the electrodes attached to each four limbs. Next, under artificial ventilation, left thoracotomy was performed and a snare (5-0 nylon) was loosely placed around a blood vessel which was about 3 mm apart from the origin of the left coronary artery. Thereafter, it was confirmed that arrhythmia was not occurred for 10 minutes, and then the snare was fastened to induce local myocardial ischemia. Furthermore, after 4 minutes of myocardial ischemia, the compound was intravenously administered for 1 minute, and after 5 minutes of myocardial ischemia, the snare was loosened, then the arrhythmia occurred after reperfusion was recorded and analyzed with an arrhythmia analyzer (Softron Co., Ltd.), thereby the anti-arrhythmic action of the compound was evaluated. […] The control group was administered with physiological saline.
With regard to the ventricular fibrillation (Vf) which occurred within 10 minutes after reperfusion (in the cases of halfway death, up to the time point where cardiac arrest was confirmed), arrhythmia analysis was performed according to the Guidelines for Lambeth Convention [Cardiovascular research, Vol. 22, p. 447-455, 1988], and evaluation was made in terms of the frequency of Vf occurrence, cumulative duration time of Vf, and the mortality.
The frequency of Vf occurrence, cumulative duration of Vf, and the mortality for the respective test compounds are presented in Table 2.

Series [3] is described as follows: Metabolic stability test in rat (generation of control compound in plasma). Format: in vivo. The following applies: male SD rats; for Plasma concentration of the control compound, after 5 min / Plasma concentration of the control compound, after 15 min / Plasma concentration of the control compound, after 30 min / Plasma concentration of the control compound, after 60 min / Plasma concentration of the control compound, after 120 min: equivalent of 1 mg/kg control compound via tail vein, LC/MS/MS; for Decomposition into the Control Compound in vivo (in words): tail vein, plasma 5-120 min. An excerpt: The compound represented by Formula (1) of the present invention has a structure in which the hydroxyl group on the 9-position of a 9-hydroxymethyl-cyclohepta[b]pyridine-3-carbonylguanidine derivative is converted to a specific substituent. However, if the compound is metabolized in vivo to remove the specific substituent from the compound, there may be generated the original 9-hydroxymethyl-cyclohepta[b]pyridine-3-carbonylguanidine derivative, which has toxic effects on the central nervous system. Thus, the inventive compounds as synthesized in Examples were administered in vivo to study whether the control compound, which was the corresponding 9-hydroxymethyl product, was generated.
Male SD rats (7 weeks old) were administered at 1 mg/kg (an amount calculated excluding salts) of the control compound, an equivalent amount of the Inventive Compound 2, 4, 6, 7 or 12, or Reference Compound 20, through the tail vein. After administration, about 0.2 mL of blood samples were collected after 5, 15, 30, 60 and 120 minutes, and the blood samples were centrifuged at 4° C. at a speed of rotation of 15000 for 15 minutes, thus to separate the supernatant plasma. The concentration of the control compound in the plasma was measured by LC/MS/MS. The measurement results were shown as +++ when the detected plasma concentration of the control compound is 200 ng/mL or greater; ++ for more than 100 ng/mL and less than 200 ng/mL; + for more than 20 ng/mL and less than 100 ng/mL; and − for less than 20 ng/mL or no detection.

For series [4], the system named is male mice. Description: Toxicity test with 2-days repeated intraperitoneal administration in mouse. Format: in vivo. The following applies: equivalent of 300 mg/kg control compound intraperitoneally once a day for 2 days. As for the experimental part:
For three male mice in each group, 300 mg/kg of the Control Compound (an amount calculated excluding salts), or an equivalent amount of the Inventive Compound 2, 4, 6, 7 or 12 were intraperitoneally administered once a day for 2 days, and a histopathological tests were performed. The Control Compound, and the Inventive Compounds 2, 4 and 6 were suspended in a 0.5% tragacanth gum solution, and the Inventive Compound 7 was suspended in a 10 DMSO-containing 0.5% tragacanth gum solution, while the Inventive Compound 12 was suspended in olive oil. For the histopathological test, in order to make a more thorough examination of central nervous toxicity, the brain was examined after whole body was subjected to perfusion fixation with a 4% formaldehyde in neutral phosphate buffer as a fixing solution using a liquid transporting pump under pentobarbital sodium anesthesia.

The test system of series [5] is Beagle dogs. Description: Toxicity test after 4-days repeated intravenous administration in beagle dogs. Particulars: equivalent of 30 mg/kg control compound intravenously once a day for 4 days. Format: in vivo, dog. As for the experimental part:
With one male and one female dogs in each group, 30 mg/kg of the Control Compound dissolved in physiological saline (an amount calculated excluding salts), or an equivalent amount of the Inventive Compound 2, 4, 6 or 8 was repeatedly administered intravenously once a day for 4 days, and general symptom observation and pharmacological histopathologic examination were performed.

Series [6] in a line: Comparative test for transferability to the brain in rat. The following applies: male SD rats, 50 mg/kg via tail vein. Format: in vivo. The procedure: To male SD rats (6 weeks old), the Control Compound or the Inventive Compound 2 was administered through the tail vein in an amount of 50 mg/kg. After administration, whole blood samples were collected over time from the abdominal aorta under etherization, and the brain tissues were extracted immediately. The brain tissues were lightly washed off to remove the blood attached around with physiological saline, and subsequently the tissues were frozen in liquid nitrogen and preserved at −30° C. until analyzed. The blood was centrifuged at 4° C. at a rotation speed of 15000 for 15 minutes to separate the supernatant plasma, and was preserved at −30° C. until analyzed. The brain tissues were thawed by standing at ambient temperature, and then the wet weight was measured. Distilled water was added in an amount five times of the wet weight, and a suspension was prepared using a Polytron homogenizer. The measurement of the test compound concentration in the plasma and the brain tissues was performed by LC/MS/MS. The transferability of the drug to the brain was calculated by dividing the drug concentration in the brain tissues by the plasma concentration obtained at the same time.

[7] abbreviates: 3.62 mmol/L, within 10 minutes after reperfusion.

From patent US7875625B2, “Cyclohepta[b]pyridine-3-carbonylguanidine derivative and pharmaceutical product containing same” (Toa Eiyo Ltd., priority 2005, dated 2011) come the findings set out here.

Usually IC50 stands for the concentration that gives 50% inhibition. The low end stands for greater potency in that assay, the high end for weaker potency in that assay.

Each structure is given as a SMILES string.

T1 sequence (P26431 whole entry): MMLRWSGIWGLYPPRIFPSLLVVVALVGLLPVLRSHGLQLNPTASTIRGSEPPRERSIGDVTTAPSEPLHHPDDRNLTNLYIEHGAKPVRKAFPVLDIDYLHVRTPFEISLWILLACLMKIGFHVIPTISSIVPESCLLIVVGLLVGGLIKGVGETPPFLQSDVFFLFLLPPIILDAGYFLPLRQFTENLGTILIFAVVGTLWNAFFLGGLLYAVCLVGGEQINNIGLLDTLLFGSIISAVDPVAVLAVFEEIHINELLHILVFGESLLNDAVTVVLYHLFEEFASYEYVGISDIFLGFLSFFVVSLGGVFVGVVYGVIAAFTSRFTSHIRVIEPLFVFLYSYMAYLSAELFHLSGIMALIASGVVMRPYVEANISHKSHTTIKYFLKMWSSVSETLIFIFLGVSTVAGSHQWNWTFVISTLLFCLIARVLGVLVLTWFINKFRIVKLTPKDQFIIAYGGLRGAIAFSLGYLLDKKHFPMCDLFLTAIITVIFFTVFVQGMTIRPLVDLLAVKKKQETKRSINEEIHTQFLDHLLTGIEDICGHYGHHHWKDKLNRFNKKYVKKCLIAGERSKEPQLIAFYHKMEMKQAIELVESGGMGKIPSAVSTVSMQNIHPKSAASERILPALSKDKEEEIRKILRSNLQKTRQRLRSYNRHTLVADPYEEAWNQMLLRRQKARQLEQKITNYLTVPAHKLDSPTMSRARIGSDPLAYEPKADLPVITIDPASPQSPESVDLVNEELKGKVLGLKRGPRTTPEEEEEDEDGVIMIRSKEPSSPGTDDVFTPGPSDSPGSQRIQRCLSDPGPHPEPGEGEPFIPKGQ

Regarding `Cc1nc2c(cc1C(=O)NC(=N)N)CCCCC2CS(=O)(=O)[O-].[Na+]` (centres unmarked) [Inventive Compound 4, 3-Guanidinocarbonyl-2-methyl-6,7,8,9-tetrahydro-5H-cyclohepta[b]pyridin-9-ylmethanesulfonic acid sodium salt], in series [1], the IC50 came out at 211 nM. Moreover, in series [2] (setting [7]), the “Cumulative duration of Vf” value worked out at 25.3 s, the “Frequency of Vf occurrence” value is reported as 60% and the Mortality is 0%. In addition, in series [3], the “Plasma concentration of the control compound, after 5 min” value (shortened to “Plasma concentration … after 5 min”) is “− (− for less than 20 ng/mL or no detection)”; the “Plasma concentration of the control compound, after 15 min” value (from here on “Plasma concentration … after 15 min”) is given as “− (− for less than 20 ng/mL or no detection)”; the “Plasma concentration of the control compound, after 30 min” value (from here on “Plasma concentration … after 30 min”) is reported as “− (− for less than 20 ng/mL or no detection)”; the “Plasma concentration of the control compound, after 60 min” value (from here on “Plasma concentration … after 60 min”) was “− (− for less than 20 ng/mL or no detection)”. Also, in series [3], the “Plasma concentration of the control compound, after 120 min” value (from here on “Plasma concentration … after 120 min”) is on record as “− (− for less than 20 ng/mL or no detection)” and the “Decomposition into the Control Compound in vivo (in words)” value (shortened to “Decomposition into the Control Compound”) is recorded as “not detected at any time point”. Further, in series [4], the “Histopathological finding in the brain” value was “any histologic finding which could be caused by drug administration was not recognized”. Moreover, in series [5], the “General condition (symptom observation)” value is “only vomiting was recognized” and the “Pathologic examination of the brain” value is “any histologic finding which could be caused by drug administration was not recognized”.

For `Cc1nc2c(cc1C(=O)NC(=N)N)CCCCC2COS(=O)(=O)[O-].[Na+]` (centres unmarked) [Inventive Compound 2, 3-Guanidinocarbonyl-2-methyl-6,7,8,9-tetrahydro-5H-cyclohepta[b]pyridin-9-ylmethyl sulfate sodium salt], the IC50 in series [1] was found to be 143 nM. For the same compound, in series [2] (setting [7]), the “Cumulative duration of Vf” value was determined as 13.7 s, the “Frequency of Vf occurrence” value worked out at 40% and the Mortality was 20%. For the same compound, in series [3], the “Plasma concentration … after 5 min” value is recorded as “− (− for less than 20 ng/mL or no detection)”; the “Plasma concentration … after 15 min” value was “− (− for less than 20 ng/mL or no detection)”; the “Plasma concentration … after 30 min” value is “− (− for less than 20 ng/mL or no detection)”; the “Plasma concentration … after 60 min” value was “− (− for less than 20 ng/mL or no detection)”. In series [3], the “Plasma concentration … after 120 min” value is recorded as “− (− for less than 20 ng/mL or no detection)” and the “Decomposition into the Control Compound” value is “not detected at any time point”. For the same compound, in series [4], the “Histopathological finding in the brain” value is listed as “any histologic finding which could be caused by drug administration was not recognized”. Further, in series [5], the “General condition (symptom observation)” value is listed as “only vomiting was recognized” and the “Pathologic examination of the brain” value was “any histologic finding which could be caused by drug administration was not recognized”. Besides, the “Transferability to the brain tissues (in words)” value in series [6] (compared with the Control Compound) is listed as “decreased transferability to the brain tissues”. Further, the Kp at 15 min in series [6] (rat, brain/plasma, intravenous, 15 min, read-out: Concentration Intracerebral/Plasma, after 15 min) turned out to be 0.29.

For `Cc1nc2c(cc1C(=O)NC(=N)N)CCCCC2COC(=O)NCCOS(=O)(=O)[O-].[Na+]` (centres unmarked) [Inventive Compound 6, 2-(3-Guanidinocarbonyl-2-methyl-6,7,8,9-tetrahydro-5H-cyclohepta[b]pyridin-9-ylmethyloxycarbonylamino)ethyl sulfate sodium salt], half-maximal inhibition in series [1] (IC50) required 142 nM. Further, in series [2] (1.09 mmol/L, 5 animals), the “Cumulative duration of Vf” value worked out at 23.3 s, the “Frequency of Vf occurrence” value is recorded as 20% and the Mortality is 0%. Besides, in series [3], the “Plasma concentration … after 5 min” value was “− (− for less than 20 ng/mL or no detection)”; the “Plasma concentration … after 15 min” value is “− (− for less than 20 ng/mL or no detection)”; the “Plasma concentration … after 30 min” value is listed as “− (− for less than 20 ng/mL or no detection)”; the “Plasma concentration … after 60 min” value is recorded as “− (− for less than 20 ng/mL or no detection)”. For the same compound, in series [3], the “Plasma concentration … after 120 min” value was “− (− for less than 20 ng/mL or no detection)” and the “Decomposition into the Control Compound” value is on record as “not detected at any time point”. Further, in series [4], the “Histopathological finding in the brain” value is on record as “any histologic finding which could be caused by drug administration was not recognized”. In addition, in series [5], the “General condition (symptom observation)” value is given as “only vomiting was recognized” and the “Pathologic examination of the brain” value is “any histologic finding which could be caused by drug administration was not recognized”.
